According to PubChem BioAssay (NCI):
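Cultured in 96-well plates, cells were exposed to test compound for 48 hours across five concentrations. At the GI50, growth is halved. TGI: total growth inhibition.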

What was measured:
Test in all cases: DTP human tumour cell line panel, 48 h; in the data active = GI50 below about 0.43 µM; inactive = the rest
A498 renal = tested on: A498 renal
A549 NSCLC = tested on: A549 NSCLC
ACHN renal = tested on: ACHN renal
CAKI-1 renal = tested on: CAKI-1 renal
CCRF-CEM leukemia = tested on: CCRF-CEM leukemia
COLO 205 colon = tested on: COLO 205 colon
DU-145 prostate = tested on: DU-145 prostate
EKVX NSCLC = tested on: EKVX NSCLC
HCC-2998 colon = tested on: HCC-2998 colon
HCT-116 colon = tested on: HCT-116 colon
HCT-15 colon = tested on: HCT-15 colon
HL-60(TB) leukemia = tested on: HL-60(TB) leukemia
HOP-62 NSCLC = tested on: HOP-62 NSCLC
HOP-92 NSCLC = tested on: HOP-92 NSCLC
HS 578T breast = tested on: HS 578T breast
HT29 colon = tested on: HT29 colon
IGROV1 ovarian = tested on: IGROV1 ovarian
K-562 leukemia = tested on: K-562 leukemia
KM12 colon = tested on: KM12 colon
LOX IMVI melanoma = tested on: LOX IMVI melanoma
M14 melanoma = tested on: M14 melanoma
MALME-3M melanoma = tested on: MALME-3M melanoma
MDA-MB-231 breast = tested on: MDA-MB-231 breast
MDA-MB-435 = tested on: MDA-MB-435
MDA-N = tested on: MDA-N
NCI-H226 lung = tested on: NCI-H226 lung
NCI-H23 lung = tested on: NCI-H23 lung
NCI-H460 lung = tested on: NCI-H460 lung
NCI-H522 lung = tested on: NCI-H522 lung
NCI/ADR-RES ovarian = tested on: NCI/ADR-RES ovarian
OVCAR-3 ovarian = tested on: OVCAR-3 ovarian
OVCAR-4 ovarian = tested on: OVCAR-4 ovarian
OVCAR-5 ovarian = tested on: OVCAR-5 ovarian
OVCAR-8 ovarian = tested on: OVCAR-8 ovarian
PC-3 prostate = tested on: PC-3 prostate
RXF 393 renal = tested on: RXF 393 renal
SF-268 CNS = tested on: SF-268 CNS
SF-295 CNS = tested on: SF-295 CNS
SF-539 CNS = tested on: SF-539 CNS
SK-MEL-2 melanoma = tested on: SK-MEL-2 melanoma
SK-MEL-28 melanoma = tested on: SK-MEL-28 melanoma
SK-MEL-5 melanoma = tested on: SK-MEL-5 melanoma
SK-OV-3 ovarian = tested on: SK-OV-3 ovarian
SN12C renal = tested on: SN12C renal
SNB-19 CNS = tested on: SNB-19 CNS
SNB-75 CNS = tested on: SNB-75 CNS
SR leukemia = tested on: SR leukemia
SW-620 colon = tested on: SW-620 colon
T-47D breast = tested on: T-47D breast
TK-10 renal = tested on: TK-10 renal
U251 CNS = tested on: U251 CNS
UACC-62 melanoma = tested on: UACC-62 melanoma
UO-31 renal = tested on: UO-31 renal
786-0 renal = tested on: 786-0 renal
BT-549 breast = tested on: BT-549 breast
MCF7 breast = tested on: MCF7 breast
MOLT-4 leukemia = tested on: MOLT-4 leukemia
RPMI-8226 leukemia = tested on: RPMI-8226 leukemia
UACC-257 melanoma = tested on: UACC-257 melanoma

Cc1cc2oc3c(ccc(=O)n3C)c(=O)c2c(C)c1Cl
81.8 µM: TGI (M14 melanoma)
73.1 µM: TGI (SK-MEL-28 melanoma)
95.6 µM: TGI (RXF 393 renal)
> 100 µM: TGI (A498 renal) | TGI (A549 NSCLC) | TGI (ACHN renal) | TGI (CAKI-1 renal) | TGI (CCRF-CEM leukemia) | TGI (COLO 205 colon) | TGI (DU-145 prostate) | TGI (EKVX NSCLC) | TGI (HCC-2998 colon) | TGI (HCT-116 colon) | TGI (HCT-15 colon) | TGI (HL-60(TB) leukemia) | TGI (HOP-62 NSCLC) | TGI (HOP-92 NSCLC) | TGI (HT29 colon) | TGI (IGROV1 ovarian) | TGI (K-562 leukemia) | TGI (KM12 colon) | TGI (LOX IMVI melanoma) | TGI (MALME-3M melanoma) | TGI (MDA-MB-231 breast) | TGI (MDA-MB-435) | TGI (MDA-N) | TGI (NCI-H226 lung) | TGI (NCI-H23 lung) | TGI (NCI-H460 lung) | TGI (NCI-H522 lung) | TGI (NCI/ADR-RES ovarian) | TGI (OVCAR-3 ovarian) | TGI (OVCAR-4 ovarian) | TGI (OVCAR-5 ovarian) | TGI (OVCAR-8 ovarian) | TGI (PC-3 prostate) | TGI (SF-268 CNS) | TGI (SF-295 CNS) | TGI (SK-MEL-2 melanoma) | TGI (SK-MEL-5 melanoma) | TGI (SK-OV-3 ovarian) | TGI (SN12C renal) | TGI (SNB-19 CNS) | TGI (SNB-75 CNS) | TGI (SR leukemia) | TGI (SW-620 colon) | TGI (T-47D breast) | TGI (TK-10 renal) | TGI (U251 CNS) | TGI (UACC-62 melanoma) | TGI (UO-31 renal)
93 µM: TGI (HS 578T breast)
74.6 µM: TGI (SF-539 CNS)

NC(=O)c1sc(-n2cnc3ccc(C(F)(F)F)cc32)cc1OCc1ccccc1Br
> 6.28 µM: TGI (MCF7 breast)
inactive: GI50 (786-0 renal) 5.31 µM | GI50 (A498 renal) 2.24 µM | GI50 (A549 NSCLC) 1.57 µM | GI50 (ACHN renal) 5.54 µM | GI50 (BT-549 breast) 3.21 µM | GI50 (CAKI-1 renal) 15.3 µM | GI50 (CCRF-CEM leukemia) 0.685 µM | GI50 (COLO 205 colon) 0.802 µM | GI50 (DU-145 prostate) 0.942 µM | GI50 (EKVX NSCLC) > 21.3 µM | GI50 (HCC-2998 colon) 2.4 µM | GI50 (HCT-116 colon) 1.43 µM | GI50 (HCT-15 colon) 1.42 µM | GI50 (HL-60(TB) leukemia) 0.558 µM | GI50 (HOP-62 NSCLC) 0.916 µM | GI50 (HOP-92 NSCLC) 2.5 µM | GI50 (HS 578T breast) 4.22 µM | GI50 (HT29 colon) 0.858 µM | GI50 (IGROV1 ovarian) 2.22 µM | GI50 (K-562 leukemia) 1.06 µM | GI50 (KM12 colon) 0.723 µM | GI50 (LOX IMVI melanoma) 1.5 µM | GI50 (M14 melanoma) 1.89 µM | GI50 (MALME-3M melanoma) 9.02 µM | GI50 (MCF7 breast) 0.805 µM | GI50 (MDA-MB-231 breast) 1.62 µM | GI50 (MDA-MB-435) 0.636 µM | GI50 (MOLT-4 leukemia) 0.965 µM | GI50 (NCI-H226 lung) 1.94 µM | GI50 (NCI-H23 lung) 1.23 µM | GI50 (NCI-H460 lung) 0.946 µM | GI50 (NCI-H522 lung) 0.793 µM | GI50 (NCI/ADR-RES ovarian) 0.764 µM | GI50 (OVCAR-3 ovarian) 0.762 µM | GI50 (OVCAR-4 ovarian) 3.21 µM | GI50 (OVCAR-5 ovarian) 1.46 µM | GI50 (OVCAR-8 ovarian) 1.78 µM | GI50 (PC-3 prostate) 2.31 µM | GI50 (RPMI-8226 leukemia) 2.7 µM | GI50 (RXF 393 renal) 0.566 µM | GI50 (SF-268 CNS) 1.32 µM | GI50 (SF-295 CNS) 1.72 µM | GI50 (SF-539 CNS) 1.37 µM | GI50 (SK-MEL-2 melanoma) 1.31 µM | GI50 (SK-MEL-28 melanoma) 4.82 µM | GI50 (SK-MEL-5 melanoma) 0.916 µM | GI50 (SK-OV-3 ovarian) 1.36 µM | GI50 (SN12C renal) 3.81 µM | GI50 (SNB-19 CNS) 2.79 µM | GI50 (SNB-75 CNS) 6.11 µM | GI50 (SR leukemia) 0.907 µM | GI50 (SW-620 colon) 0.749 µM | GI50 (T-47D breast) 2.59 µM | GI50 (TK-10 renal) 7.81 µM | GI50 (U251 CNS) 1.61 µM | GI50 (UACC-257 melanoma) 2.74 µM | GI50 (UACC-62 melanoma) 1.38 µM | GI50 (UO-31 renal) 5.48 µM
1.94 µM: TGI (RXF 393 renal)
1.76 µM: TGI (HL-60(TB) leukemia)
19.3 µM: TGI (MDA-MB-231 breast)
> 23.4 µM: TGI (SF-295 CNS)
16.8 µM: TGI (HOP-92 NSCLC)
> 25 µM: TGI (786-0 renal) | TGI (A549 NSCLC) | TGI (ACHN renal) | TGI (BT-549 breast) | TGI (CAKI-1 renal) | TGI (CCRF-CEM leukemia) | TGI (EKVX NSCLC) | TGI (HCT-116 colon) | TGI (HCT-15 colon) | TGI (HT29 colon) | TGI (IGROV1 ovarian) | TGI (K-562 leukemia) | TGI (LOX IMVI melanoma) | TGI (M14 melanoma) | TGI (MALME-3M melanoma) | TGI (MOLT-4 leukemia) | TGI (NCI-H23 lung) | TGI (NCI/ADR-RES ovarian) | TGI (OVCAR-4 ovarian) | TGI (OVCAR-8 ovarian) | TGI (PC-3 prostate) | TGI (SF-268 CNS) | TGI (SK-MEL-28 melanoma) | TGI (SN12C renal) | TGI (SNB-19 CNS) | TGI (SNB-75 CNS) | TGI (SR leukemia) | TGI (SW-620 colon) | TGI (TK-10 renal) | TGI (U251 CNS) | TGI (UACC-257 melanoma) | TGI (UO-31 renal)
> 21.2 µM: TGI (RPMI-8226 leukemia)
> 23.1 µM: TGI (HCC-2998 colon)
> 15.4 µM: TGI (NCI-H460 lung)
> 10.5 µM: TGI (HOP-62 NSCLC)
17.9 µM: TGI (UACC-62 melanoma)
2.87 µM: TGI (KM12 colon)
5.71 µM: TGI (NCI-H522 lung)
2.55 µM: TGI (OVCAR-3 ovarian)
9.41 µM: TGI (SK-OV-3 ovarian)
11.3 µM: TGI (SK-MEL-2 melanoma)
> 17 µM: TGI (SF-539 CNS)
> 19.2 µM: TGI (OVCAR-5 ovarian)
6.78 µM: TGI (SK-MEL-5 melanoma)
3.89 µM: TGI (DU-145 prostate)
3.44 µM: TGI (COLO 205 colon)
16.2 µM: TGI (A498 renal)
> 20.3 µM: TGI (T-47D breast)
> 22.8 µM: TGI (HS 578T breast)
1.78 µM: TGI (MDA-MB-435)
18.6 µM: TGI (NCI-H226 lung)

CS(=O)(=O)OCC1CCCCCCCCCCC12SCCCS2 (stereo not given)
> 100 µM: TGI (786-0 renal) | TGI (A498 renal) | TGI (A549 NSCLC) | TGI (ACHN renal) | TGI (CAKI-1 renal) | TGI (CCRF-CEM leukemia) | TGI (COLO 205 colon) | TGI (DU-145 prostate) | TGI (EKVX NSCLC) | TGI (HCC-2998 colon) | TGI (HCT-116 colon) | TGI (HCT-15 colon) | TGI (HL-60(TB) leukemia) | TGI (HOP-62 NSCLC) | TGI (HOP-92 NSCLC) | TGI (HS 578T breast) | TGI (HT29 colon) | TGI (IGROV1 ovarian) | TGI (K-562 leukemia) | TGI (KM12 colon) | TGI (LOX IMVI melanoma) | TGI (M14 melanoma) | TGI (MALME-3M melanoma) | TGI (MCF7 breast) | TGI (MDA-MB-231 breast) | TGI (MDA-MB-435) | TGI (MDA-N) | TGI (MOLT-4 leukemia) | TGI (NCI-H226 lung) | TGI (NCI-H23 lung) | TGI (NCI-H460 lung) | TGI (NCI-H522 lung) | TGI (NCI/ADR-RES ovarian) | TGI (OVCAR-3 ovarian) | TGI (OVCAR-4 ovarian) | TGI (OVCAR-5 ovarian) | TGI (OVCAR-8 ovarian) | TGI (PC-3 prostate) | TGI (RXF 393 renal) | TGI (SF-268 CNS) | TGI (SF-295 CNS) | TGI (SF-539 CNS) | TGI (SK-MEL-2 melanoma) | TGI (SK-MEL-28 melanoma) | TGI (SK-MEL-5 melanoma) | TGI (SK-OV-3 ovarian) | TGI (SN12C renal) | TGI (SNB-19 CNS) | TGI (SR leukemia) | TGI (SW-620 colon) | TGI (T-47D breast) | TGI (TK-10 renal) | TGI (U251 CNS) | TGI (UACC-257 melanoma) | TGI (UACC-62 melanoma) | TGI (UO-31 renal)
